Source: patent US20110028398A1, “METHODS FOR TREATING AND LIMITING FIBROTIC DISORDERS AND KELOIDS” (The Arizona Board of Regents, a body corporate acting for …, priority 2006, published 2011)

What was measured:
[1] = system: CTGF expression in human keloid fibroblasts; experiment: TGF-β1-induced CTGF expression, Western blot densitometry related to GAPDH; assay type: cell-based
Protocol: Fibroblast culture: Human keloid fibroblasts were grown in 10 cm^2 dishes to 70% confluence in DMEM with 10% FBS and additional penicillin and streptomycin (1%), at 37° C. and 10% CO2. Cells were serum starved in DMEM containing 0.5% FBS for 48 h before the experiment. At the start of the assay, fresh media was added to the dishes, and cells were either untreated (control) or treated with TGF-β1 (doses ranging from 0.6 to 5 ng/mL), P20 phosphopeptide (doses ranging from 50-200 μM), forskolin (FSK, 10 μM) or SNAP (500 μM) for 24 h. To verify the influence of serum starvation, we also had cells in 10% FBS containing medium (control high serum).
Western blot analysis: At the end of the experiment, cells were rinsed with PBS, and homogenized using UDC buffer. Lysates were mixed, centrifuged (6000×g) for 20 min, and the supernatant was used for determination of CTGF and collagen expression. Samples (20 μg of protein) were loaded on 15 or 10% SDS-PAGE gels, and the proteins were electrophoretically transferred to Immobilon membranes. […] Protein-antibody complexes were visualized using the Odyssey direct infrared fluorescence imaging system (Li-Cor, Lincoln, Nebr.). […]
P20 treatment and CTGF expression: Human keloid fibroblasts were serum-starved in DMEM medium containing 0.5% FBS for 48 hours, stimulated with TGF-beta1 doses ranging from 1.2 to 5 ng/mL and concomitantly treated with the P20 phosphopeptide (50, 100 or 200 μM) for 24 hours. Western blot bands were quantified by densitometry, and CTGF expression was related to GAPDH expression to correct for loading differences. […]
Treatment with compounds that elevate cAMP and cGMP: We next evaluated the influence of compounds that elevate cAMP (Forskolin, FSK) or cGMP (SNAP) on CTGF expression in keloid fibroblasts. […] Western blot bands were quantified by densitometry, and CTGF expression was related to GAPDH expression to correct for loading differences. […]

[2] = system: CTGF expression in renal fibroblasts; conditions: Ott et al., 2003; cited from earlier work

In the case of `CC(=O)N[C@@H](C(=O)O)C(C)(C)SN=O` (racemic) [SNAP], the “decrease of CTGF expression” value ([1]; TGF-β1-stimulated cells, SNAP 500 μM) is reported as “did not decrease” and the “CTGF expression compared to untreated (control) cells” value ([1]; non-stimulated cells, SNAP 500 μM, p<0.05) is reported as “two-time increase”.

In the case of `C=C[C@@]1(C)CC(=O)[C@]2(O)[C@@]3(C)[C@@H](O)CCC(C)(C)[C@@H]3[C@H](O)[C@H](OC(C)=O)[C@@]2(C)O1` [FSK, forskolin], the “decrease of CTGF expression” value ([1]; TGF-β1-stimulated fibroblasts (2.5 ng/mL), FSK 10 μM, 24 h) is reported as about 50%.

For latrunculin, the CTGF expression [2] is listed as “decreased”.
